# Test results: patent US20100292210A1, “Novel Compounds for A-Beta-Related Pathologies” (AstraZeneca AB, priority 2009, published 2010)
# System: Aβ42 release
# Experiment: Aβ42 release from HEK cells stably expressing APPswe, Meso Scale Discovery electrochemiluminescence assay
# Type: cell-based
# Settings: Homo sapiens, HEK293; HEK cell line stably expressing APPswe; 4-6 h incubation with test compound; Aβ42 secreted to cell medium; read-out: pIC50 values of Aβ42 release (converted)
# Method: The level of activity of the compounds on Aβ formation was tested using the following method:
# Compounds were diluted in 100% DMSO and stored at […] prior to use. Human Embryonic Kidney (HEK) cell line stably expressing APP with the Swedish mutation (APPswe) were cultured using Dulbecco's Modified Eagles medium (DMEM) supplied with […] glucose, Na-pyruvate and GlutaMAX with 10% FBS, 100 U/ml penicillin-streptomycin (PEST) respectively, 1×non-essential amino acids (NEAA), […], 100 μg/ml Zeocine. Cells at about 80% confluence were washed with PBS, detached from culture flasks using 1×Trypsin/EDTA diluted in PBS, re-suspended in cell media and plated in 384-well poly-d-lysine coated cell culture plates at about 10000-15000 cells/well, in 25 μL cell media. Optionally, cryo-preserved cells (frozen and stored at −140° C. in 90% cell media and 10% DMSO) were thawed, washed and plated as above. Next the cells were incubated for 15-24 h at 37° C. and 5% CO2, after which cell medium was changed. Fresh medium containing test compound diluted ×200 from prepared compound plate was added to the cells before further incubation for 4-6 hours at 37° C. and 5% CO2. After incubation with test compound the amount of Aβ peptides, including Aβ42, Aβ40, Aβ39, Aβ38 and Aβ37, secreted to cell medium was analyzed using the electrochemiluminescence assay technology from Meso Scale Discovery Technology, in combination with specific antibodies raised against the different Aβ peptides. Potential cytotoxic effects of the compounds were usually assayed by measuring the ATP content (ViaLight) from cell lysate.
row,Structure (SMILES),IC50
1,"COc1cc(Nc2ccc3c(n2)O[C@@H](c2ccccc2)CN(C)C3)ccc1-n1cnc(C)c1 [Example 21, (S)—N-(3-methoxy-4-(4-methyl-1H-imidazol-1-yl)phenyl)-4-methyl-2-phenyl-2,3,4,5-tetrahydropyrido[3,2-f][1,4]oxazepin-8-amine]",200 nM
2,"COc1cc(Nc2ncc3c(n2)O[C@H](c2ccccc2)CN(C)C3)ccc1-n1cnc(C)c1 [Example 13, (R)—N-(3-methoxy-4-(4-methyl-1H-imidazol-1-yl)phenyl)-6-methyl-8-phenyl-5,6,7,8-tetrahydropyrimido[5,4-f][1,4]oxazepin-2-amine]",20 nM
3,"Cc1nccn1-c1ccc(Nc2ccc3c(n2)OC(c2ccccc2)CN(C)C3=O)cc1 (centres unmarked) [Example 2, 4-methyl-8-(4-(2-methyl-1H-imidazol-1-yl)phenylamino)-2-phenyl-3,4-dihydropyrido[3,2-f][1,4]oxazepin-5(2H)-one]",1260 nM
4,"Cc1noc(-c2ccc(Nc3ccc4c(n3)OC(c3ccccc3)CN(C)C4=O)cc2)n1 (centres unmarked) [Example 1, 4-methyl-8-(4-(3-methyl-1,2,4-oxadiazol-5-yl)phenylamino)-2-phenyl-3,4-dihydropyrido[3,2-f][1,4]oxazepin-5(2H)-one]",1580 nM
5,"CN1CC(c2ccccc2)Oc2nc(Oc3ccc(-n4ccnc4)cc3)ncc2C1=O (centres unmarked) [Example 28, 2-(4-(1H-Imidazol-1-yl)phenoxy)-6-methyl-8-phenyl-7,8-dihydropyrimido[5,4-f][1,4]oxazepin-5(6H)-one]",6310 nM
6,"Cc1nccn1-c1ccc(Nc2ccc3c(n2)OC(c2ccccc2)CN(C)C3)cn1 (centres unmarked) [Example 23, 4-methyl-N-(6-(2-methyl-1H-imidazol-1-yl)pyridin-3-yl)-2-phenyl-2,3,4,5-tetrahydropyrido[3,2-f][1,4]oxazepin-8-amine]",501 nM
7,"Cc1cncn1-c1ccc(Nc2ccc3c(n2)O[C@H](c2ccccc2)CN(CCO)C3)cc1 [Example 30, (R)-2-(8-(4-(5-methyl-1H-imidazol-1-yl)phenylamino)-2-phenyl-2,3-dihydropyrido[3,2-f][1,4]oxazepin-4(5H)-yl)ethanol]",631 nM
8,"OCCN1Cc2ccc(Nc3ccc(-c4nnc5n4CCC5)cc3)nc2O[C@H](c2ccccc2)C1 [Example 26, (R)-2-(8-(4-(6,7-Dihydro-5H-pyrrolo[2,1-c][1,2,4]triazol-3-yl)phenylamino)-2-phenyl-2,3-dihydropyrido[3,2-f][1,4]oxazepin-4(5H)-yl)ethanol]",20000 nM
9,"Cc1nccn1-c1ccc(Nc2ccc3c(n2)OC(c2ccccc2)CN(C)C3=O)cn1 (centres unmarked) [Example 6, 4-methyl-8-(6-(2-methyl-1H-imidazol-1-yl)pyridin-3-ylamino)-2-phenyl-3,4-dihydropyrido[3,2-f][1,4]oxazepin-5(2H)-one]",6310 nM
10,"COc1cc(Nc2ccc3c(n2)O[C@H](c2ccccc2)CN(CCO)C3)ccc1C#N [Example 29, (R)-4-(4-(2-Hydroxyethyl)-2-phenyl-2,3,4,5-tetrahydropyrido[3,2-f][1,4]oxazepin-8-ylamino)-2-methoxybenzonitrile]",1260 nM
11,"COc1nc(Nc2ccc3c(n2)O[C@H](c2ccccc2)CN(C(C)=O)C3)ccc1-n1cnc(C)c1 [Example 11, (R)-1-(8-(6-methoxy-5-(4-methyl-1H-imidazol-1-yl)pyridin-2-ylamino)-2-phenyl-2,3-dihydropyrido[3,2-f][1,4]oxazepin-4(5H)-yl)ethanone]",15.8 nM

# Second part, the molecule after the results:
row,IC50,Structure (SMILES)
1,15.8 nM,"COc1cc(Nc2ccc3c(n2)O[C@H](c2ccccc2)CN(CC#N)C3)ccc1-n1cnc(C)c1 [Example 47, (R)-2-(8-(3-Methoxy-4-(4-methyl-1H-imidazol-1-yl)phenylamino)-2-phenyl-2,3-dihydropyrido[3,2-f][1,4]oxazepin-4(5H)-yl)acetonitrile]"
2,31.6 nM,"Cc1cn(-c2ccc(Nc3ccc4c(n3)O[C@H](c3ccccc3)CN(CCO)C4)cc2)cn1 [Example 42, (R)-2-(8-(4-(4-Methyl-1H-imidazol-1-yl)phenylamino)-2-phenyl-2,3-dihydropyrido[3,2-f][1,4]oxazepin-4(5H)-yl)ethanol]"
3,31.6 nM,"COc1cc(Nc2ccc3c(n2)O[C@H](c2ccccc2)CN(C)C3)ccc1-n1cnc(C)n1 [Example 44, (R)—N-(3-Methoxy-4-(3-methyl-1H-1,2,4-triazol-1-yl)phenyl)-4-methyl-2-phenyl-2,3,4,5-tetrahydropyrido[3,2-f][1,4]oxazepin-8-amine]"
4,39.8 nM,"COc1cc(Nc2ccc3c(n2)O[C@H](c2ccccc2)CN(CCO)C3)ccc1-n1cnc(C)n1 [Example 41, (R)-2-(8-(3-Methoxy-4-(3-methyl-1H-1,2,4-triazol-1-yl)phenylamino)-2-phenyl-2,3-dihydropyrido[3,2-f][1,4]oxazepin-4(5H)-yl)ethanol]"
5,251 nM,"COc1cc(Nc2ccc3c(n2)O[C@H](c2ccccc2)CN(CCO)C3)ccc1-n1cncc1C [Example 34, (R)-2-(8-(3-Methoxy-4-(5-methyl-1H-imidazol-1-yl)phenylamino)-2-phenyl-2,3-dihydropyrido[3,2-f][1,4]oxazepin-4(5H)-yl)ethanol]"
6,50.1 nM,"COc1cc(Nc2ccc3c(n2)O[C@H](c2ccccc2)CN(C(=O)N(C)C)C3)ccc1-n1cnc(C)c1 [Example 40, (R)-8-(3-Methoxy-4-(4-methyl-1H-imidazol-1-yl)phenylamino)-N,N-dimethyl-2-phenyl-2,3-dihydropyrido[3,2-f][1,4]oxazepine-4(5H)-carboxamide]"
7,126 nM,"COc1cc(Nc2ccc3c(n2)OC(c2ccccn2)CN(C)C3)ccc1-n1cnc(C)c1 (centres unmarked) [Example 37, N-(3-Methoxy-4-(4-methyl-1H-imidazol-1-yl)phenyl)-4-methyl-2-(pyridin-2-yl)-2,3,4,5-tetrahydropyrido[3,2-f][1,4]oxazepin-8-amine]"
8,10 nM,"COc1nc(Nc2ccc3c(n2)O[C@H](c2ccccc2)CNC3)ccc1-c1cnn(C)c1 [Example 56, (R)—N-(6-Methoxy-5-(1-methyl-1H-pyrazol-4-yl)pyridin-2-yl)-2-phenyl-2,3,4,5-tetrahydropyrido[3,2-f][1,4]oxazepin-8-amine]"
9,631 nM,"COc1cc(Nc2ccc3c(n2)OC(COC(C)C)CN(C(C)=O)C3)ccc1-n1cnc(C)c1 (centres unmarked) [Example 31, 1-(2-(Isopropoxymethyl)-8-(3-methoxy-4-(4-methyl-1H-imidazol-1-yl)phenylamino)-2,3-dihydropyrido[3,2-f][1,4]oxazepin-4(5H)-yl)ethanone]"
10,316 nM,"CN1Cc2ccc(Nc3ccc(-c4cnn(C)c4)nc3)nc2O[C@H](c2ccccc2)C1 [Example 58, (R)-4-Methyl-N-(6-(1-methyl-1H-pyrazol-4-yl)pyridin-3-yl)-2-phenyl-2,3,4,5-tetrahydropyrido[3,2-f][1,4]oxazepin-8-amine]"
11,31.6 nM,"CN1Cc2ccc(Nc3ccc(-n4ccnc4CO)cc3)nc2O[C@H](c2ccccc2)C1 [Example 60, (R)-(1-(4-(4-Methyl-2-phenyl-2,3,4,5-tetrahydropyrido[3,2-f][1,4]oxazepin-8-ylamino)phenyl)-1H-imidazol-2-yl)methanol]"
12,50.1 nM,"COc1nc(Nc2ccc3c(n2)OC(c2cccc(C)n2)CN(C)C3)ccc1-c1cnn(C)c1 (centres unmarked) [Example 53, N-(6-Methoxy-5-(1-methyl-1H-pyrazol-4-yl)pyridin-2-yl)-4-methyl-2-(6-methylpyridin-2-yl)-2,3,4,5-tetrahydropyrido[3,2-f][1,4]oxazepin-8-amine]"
